test system: T1, purified human Hsp90; assay: Hsp90 binding assay: displacement of BODIPY-labeled geldanamycin measured by fluorescence polarization; settings: 5 μM compound; BODIPY-GM 10 nM, Hsp90 30 nM, overnight at room temperature
T1 construct: purified human Hsp90 (Stressgen, SPP-770)
Experimental: Binding of the Example Compounds to purified Hsp90 was assayed by measuring the displacement of BODIPY-labeled geldanamycin (BODIPY-GM) from purified human Hsp90, using a fluorescence polarization assay adapted from Kim et al. (J. Biomolec. Screening, 9(5):375-381 (2004)). Compound dilutions (in 100% DMSO) were added to black-bottom 96-well plates (Greiner Bio-One, Monroe, N.C.) in 2% DMSO final, and equal volumes of BODIPY-GM (10 nM final) and purified human Hsp90 (Stressgen, SPP-770; 30 nM final) (Assay Designs, Ann Arbor, Mich.) in assay buffer (20 mM HEPES-KOH pH 7.3, 50 mM KCl, 5 mM MgCl2, 20 mM Na2MoO4, 0.01% NP-40, 0.1 mg/mL bovine gamma globulin [P2045; Invitrogen, Carlsbad, Calif.], 2 mM DTT) were added sequentially to yield a final volume of 50 microliters. Plates were incubated overnight at room temperature. Parallel and perpendicular fluorescence measurements were read (Analyst AD plate reader; LJL BioSystems, Middletown, Conn.) with excitation/emission wavelengths of 485/530 nm. Background fluorescence (buffer only) was subtracted, and fluorescence polarization (FP) values, expressed in mP units, were calculated from parallel and perpendicular fluorescence readings as follows:
FP=(parallel−perpendicular)/(parallel+perpendicular)*1000.
Percent inhibition was calculated by normalizing the FP values to those obtained in parallel reactions containing DMSO and subtracting these normalized values from 100%. Intrinsic compound fluorescence was independently monitored, and FP data points confounded by compound fluorescence were excluded from the analysis.

| Compound | GM displacement from purified Hsp90 measured by FP Inhibition by 5 μM compd. (%) |
| --- | --- |
| N#Cc1cc2c(cc1Sc1nc3c(N)ncn(CCC4CCN(C=O)CC4)c-3n1)CCC2=O [compound 2, 6-({6-amino-3-[2-(1-formylpiperidin-4-yl)ethyl]-3H-purin-8-yl}thio)-3-oxoindane-5-carbonitrile] | 24.0% |

same assay, conditions: BODIPY-GM 10 nM, Hsp90 30 nM, overnight at room temperature; read-out: GM displacement from purified Hsp90 measured by FP IC 50

| Compound | IC50 |
| --- | --- |
| CN(C)C(=O)c1cc2c(cc1Sc1nc3c(N)ncnc3n1CCC1CCN(C=O)CC1)OCO2 [Example Compound 193, 6-({6-amino-9-[2-(1-formylpiperidin-4-yl)ethyl]-9H-purin-8-yl}thio)-N,N-dimethyl-1,3-benzodioxole-5-carboxamide] | 4300 nM |
| CC(=O)OCC(=O)N1CCC(CCn2c(Sc3cc4occc4cc3Br)nc3c(N)ncnc32)CC1 [Example Compound 194, 2-[4-(2-{6-Amino-8-[(5-bromo-1-benzofuran-6-yl)thio]-9H-purin-9-yl}ethyl)piperidin-1-yl]-2-oxoethyl acetate] | 150 nM |
| Nc1ncnc2c1nc(Sc1cc3occc3cc1Br)n2CCC1CCN(C(=O)CO)CC1 [Example Compound 195, 2-[4-(2-{6-Amino-8-[(5-bromo-1-benzofuran-6-yl)thio]-9H-purin-9-yl}ethyl)piperidin-1-yl]-2-oxoethanol] | 45 nM |
| Nc1ncnc2c1nc(Sc1cc3occc3cc1Br)n2CCC1CCNCC1 [Example Compound 197, 8-[(5-Bromo-1-benzofuran-6-yl)thio]-9-(2-piperidin-4-ylethyl)-9H-purin-6-amine] | 150 nM |
| CC(=O)O[C@@H](C)C(=O)N1CCC(CCn2c(Sc3cc4occc4cc3Br)nc3c(N)ncnc32)CC1 [Example Compound 198, (1S)-2-[4-(2-{6-Amino-8-[(5-bromo-1-benzofuran-6-yl)thio]-9H-purin-9-yl}ethyl)piperidin-1-yl]-1-methyl-2-oxoethyl acetate] | 110 nM |
| C[C@H](O)C(=O)N1CCC(CCn2c(Sc3cc4occc4cc3Br)nc3c(N)ncnc32)CC1 [Example Compound 199, (2S)-1-[4-(2-{6-Amino-8-[(5-bromo-1-benzofuran-6-yl)thio]-9H-purin-9-yl}ethyl)piperidin-1-yl]-1-oxopropan-2-ol] | 190 nM |
| C[C@@H](OC(=O)C(C)(C)C)C(=O)N1CCC(CCn2c(Sc3cc4occc4cc3Br)nc3c(N)ncnc32)CC1 [Example Compound 200, (1R)-2-[4-(2-{6-Amino-8-[(5-bromo-1-benzofuran-6-yl)thio]-9H-purin-9-yl}ethyl)piperidin-1-yl]-1-methyl-2-oxoethyl pivalate] | 185 nM |
| C[C@@H](O)C(=O)N1CCC(CCn2c(Sc3cc4occc4cc3Br)nc3c(N)ncnc32)CC1 [Example Compound 201, (2R)-1-[4-(2-{6-Amino-8-[(5-bromo-1-benzofuran-6-yl)thio]-9H-purin-9-yl}ethyl)piperidin-1-yl]-1-oxopropan-2-ol] | 200 nM |
| C[C@H](O)C(=O)N1CCC(CCn2c(Sc3cc4c(cc3Cl)OCO4)nc3c(N)ncnc32)CC1 [Example Compound 203, (2S)-1-[4-(2-{6-Amino-8-[(6-chloro-1,3-benzodioxol-5-yl)thio]-9H-purin-9-yl}ethyl)piperidin-1-yl]-1-oxopropan-2-ol] | 395 nM |
| C[C@@H](O)C(=O)N1CCC(CCn2c(Sc3cc4c(cc3Cl)OCO4)nc3c(N)ncnc32)CC1 [Example Compound 204, (2R)-1-[4-(2-{6-Amino-8-[(6-chloro-1,3-benzodioxol-5-yl)thio]-9H-purin-9-yl}ethyl)piperidin-1-yl]-1-oxopropan-2-ol] | 400 nM |
| Nc1ncnc2c1nc(Sc1cc3c(cc1Cl)OCO3)n2CCC1CCN(C(=O)CO)CC1 [Example Compound 205, 2-[4-(2-{6-Amino-8-[(6-chloro-1,3-benzodioxol-5-yl)thio]-9H-purin-9-yl}ethyl)piperidin-1-yl]-2-oxoethanol] | 497 nM |
| C[C@H](O)C(=O)N1CCCC[C@@H]1CCn1c(Sc2cc3c(cc2Br)OCO3)nc2c(N)ncnc21 [Example Compound 206, (2S)-1-[(2R)-2-(2-{6-Amino-8-[(6-bromo-1,3-benzodioxol-5-yl)thio]-9H-purin-9-yl}ethyl)piperidin-1-yl]-1-oxopropan-2-ol] | > 5000 nM |
| C[C@H](O)C(=O)N1CCCC[C@H]1CCn1c(Sc2cc3c(cc2Br)OCO3)nc2c(N)ncnc21 [Example Compound 207, (2S)-1-[(2S)-2-(2-{6-Amino-8-[(6-bromo-1,3-benzodioxol-5-yl)thio]-9H-purin-9-yl}ethyl)piperidin-1-yl]-1-oxopropan-2-ol] | > 5000 nM |
| COc1cc(Br)c(Sc2nc3c(N)ncnc3n2CCC2CCN(C(=O)[C@H](C)O)CC2)cc1OC [Example Compound 208, (2S)-1-[4-(2-{6-Amino-8-[(2-bromo-4,5-dimethoxyphenyl)thio]-9H-purin-9-yl}ethyl)piperidin-1-yl]-1-oxopropan-2-ol] | > 5000 nM |
| C[C@H](O)C(=O)N1CCC(CCn2c(Sc3cc(O)c(O)cc3Br)nc3c(N)ncnc32)CC1 [Example Compound 209, 4-{[6-Amino-9-(2-{1-[(2S)-2-hydroxypropanoyl]piperidin-4-yl}ethyl)-9H-purin-8-yl]thio}-5-bromobenzene-1,2-diol] | 2100 nM |
| Nc1ncnc2c1nc(Sc1cc3c(cc1Br)OCO3)n2C1CCNCC1 [Example Compound 211, 8-[(6-Bromo-1,3-benzodioxol-5-yl)thio]-9-piperidin-4-yl-9H-purin-6-amine] | 950 nM |
| C[C@H](O)C(=O)N1CCC(n2c(Sc3cc4c(cc3Br)OCO4)nc3c(N)ncnc32)CC1 [Example Compound 212, (2S)-1-(4-{6-amino-8-[(6-bromo-1,3-benzodioxol-5-yl)thio]-9H-purin-9-yl}piperidin-1-yl)-1-oxopropan-2-ol] | 350 nM |
| Nc1ncnc2c1nc(Sc1cc3c(cc1Br)OCO3)n2C1CCN(C=O)CC1 [Example Compound 213, 4-{6-Amino-8-[(6-bromo-1,3-benzodioxol-5-yl)thio]-9H-purin-9-yl}piperidine-1-carbaldehyde] | 580 nM |
| N#Cc1cc2c(cc1Sc1nc3c(N)ncnc3n1CCC1CCN(C=O)CC1)CCC2=O [compound 1, 6-({6-Amino-9-[2-(1-formylpiperidin-4-yl)ethyl]-9H-purin-8-yl}thio)-3-oxoindane-5-carbonitrile] | 230 nM |
| COCCOCC(=O)N1CCC(CCn2c(Sc3cc4c(cc3Br)OCCO4)nc3c(N)ncnc32)CC1 [compound 3, 8-[(7-Bromo-2,3-dihydro-1,4-benzodioxin-6-yl)thio]-9-(2-{1-[(2-methoxyethoxy)acetyl]piperidin-4-yl}ethyl)-9H-purin-6-amine] | 80 nM |
| CO[C@@H](C)C(=O)N1CCC(CCn2c(Sc3cc4c(cc3Br)OCCO4)nc3c(N)ncnc32)CC1 [compound 4, 8-[(7-Bromo-2,3-dihydro-1,4-benzodioxin-6-yl)thio]-9-(2-{1-[(2S)-2-methoxypropanoyl]piperidin-4-yl}ethyl)-9H-purin-6-amine] | 80 nM |
| COCCC(=O)N1CCC(CCn2c(Sc3cc4c(cc3Br)OCCO4)nc3c(N)ncnc32)CC1 [compound 5, 8-[(7-Bromo-2,3-dihydro-1,4-benzodioxin-6-yl)thio]-9-{2-[1-(3-methoxypropanoyl)piperidin-4-yl]ethyl}-9H-purin-6-amine] | 63 nM |
| COCC(=O)N1CCC(CCn2c(Sc3cc4c(cc3Br)OCCO4)nc3c(N)ncnc32)CC1 [compound 6, 8-[(7-Bromo-2,3-dihydro-1,4-benzodioxin-6-yl)thio]-9-{2-[1-(methoxyacetyl)piperidin-4-yl]ethyl}-9H-purin-6-amine] | 70 nM |

Source: US20100292255A1, “Therapeutic Compounds and Their Use in Treating Diseases and Disorders” (Myriad Pharmaceuticals, Inc., priority 2007, published 2010)
